Source: patent US6613897B1, “Compounds having glucuronic acid derivatives and glucosamine derivative in the structure, process for producing the same and utilization thereof” (Maruha Corporation, priority 1998, dated 2003)
Read-outs that look alike come from different tables or passages of the source.

What was measured:
[1] = tested on: bovine aortic vascular endothelial cells; test: Vascular endothelial cell growth promoting action (BrdU uptake); type: cell-based; details: 20 hours
Description: This test used bovine aortic vascular endothelial cells (passage number 3) as cells, and MEM containing 10% FCS (fetal calf serum), 100 units/mL penicillin G, and 100 μg/mL streptomycin as a culture medium. […] Culture was performed for 20 hours at 37° C. and 5% CO2, and then the effect of the compounds on vascular endothelial cell growth was measured using “Cell Growth ELISA, BrdU Color Development Kit” (Boehringer Mannheim) (uptake of 5-bromodeoxyuridine (BrdU) was adopted as an indicator).

[2] = tested on: bovine aortic vascular endothelial cells
Description: A test was conducted to investigate the interaction of the compounds of the invention with vascular endothelial growth factor (VEGF). As the VEGF, human recombinant VEGF was used (Vascular Endothelial Growth Factor, Human, Recombinant, For Biochemical Use: a product of Wako Pure Chemical Industries).
The test was conducted in the same manner as in Example 12, but VEGF (final concentration 10 ng/mL) was added simultaneously with the addition of the compound. As comparative tests, a VEGF single addition test (a test in which only VEGF was added) and a negative control test (a test in which neither the compound nor VEGF was added) were performed. The effect on vascular endothelial cell growth was measured in the same way as in Example 12.
The vascular endothelial cell growth promoting action of each of the compounds was evaluated from the following equation:
Promoting rate (%)={(Increase in the BrdU uptake in the compound addition test)/(Increase in the BrdU uptake in the negative control test)}×100

[3] = tested on: rabbit platelet rich plasma; details: read-out: 50% Inhibitory Concentration; collagen-induced platelet aggregation, rabbit PRP
Description: Blood was taken from the rabbit aorta in an amount of 9 volumes of the blood per volume of a 3.8% aqueous solution of sodium citrate. The blood sample was immediately centrifuged (50×g, 10 min, room temperature) to obtain platelet rich plasma (PRP) as a supernatant. […] The mixture was held for 1 minute at 37° C., and then 10 μL of 10 μg/mL collagen (bovine tendon collagen: a product of Meiji Yakuhin) was added as an aggregation inducer. An aggregation curve was recorded for 7 minutes after addition.

[4] = compound concentration 0.1 μg/mL
[5] = compound concentration 0.5 μg/mL
[6] = compound concentration 10 μg/mL
[7] = compound concentration 0.1 μg/mL + VEGF 10 ng/mL
[8] = compound concentration 0.5 μg/mL + VEGF 10 ng/mL
[9] = compound concentration 1 μg/mL + VEGF 10 ng/mL
[10] = compound concentration 5 μg/mL + VEGF 10 ng/mL
[11] = compound concentration 10 μg/mL + VEGF 10 ng/mL

Substance	Promoting rate [1, 4]	Promoting rate [1, 5]	Promoting rate ([1]; compound concentration 1 μg/mL)	Promoting rate ([1]; compound concentration 5 μg/mL)	Promoting rate [1, 6]	Promoting rate [2, 7]	Promoting rate [2, 8]	Promoting rate [2, 9]	Promoting rate [2, 10]	Promoting rate [2, 11]	IC50 [3]	Promoting rate ([2]; VEGF added alone, 10 ng/mL (compound concentration 0))
4-deoxy-α-L-threo-hexa-4-enepyranuronosyl-(1→3)-O-2-acetamide-2-deoxy-β-D-glucopyranosyl-(1→4)-3-O-β-D-glucopyranuronic acid [Compound Example 7]	104.8%	139.7%	172.6%	170.0%	129.7%	165.0%	206.2%	235.9%	228.7%	191.3%	–	–
4-deoxy-α-L-threo-hexa-4-enepyranuronosyl-(1→3)-O-2-acetamide-2-deoxy-β-D-glucopyranosyl-(1→4)-3-O-β-D-glucopyranuronitol [Compound Example 9]	102.8%	139.5%	180.3%	179.3%	133.4%	159.8%	200.2%	245.6%	244.2%	196.8%	–	–
4-deoxy-α-L-threo-hexa-4-enepyranuronosyl-(1→3)-O-2-acetamide-2-deoxy-β-D-glucopyranosyl-(1→4)-3-O-β-D-glucopyranuronosyl-(1→3)-O-2-acetamide-2-deoxy-β-D-glucopyranitol [Compound Example 5]	101.1%	144.2%	182.7%	169.9%	141.1%	160.9%	205.0%	243.8%	231.1%	200.4%	–	–
4-deoxy-α-L-threo-hexa-4-enepyranuronosyl-(1→3)-O-2-acetamide-2-deoxy-β-D-glucopyranosyl-(1→4)-3-O-β-D-glucopyranuronosyl-(1→3)-O-2-acetamide-2-deoxy-β-D-glucopyranose [Compound Example 1]	–	–	–	–	–	–	–	–	–	–	2700 nM	–
4-deoxy-α-L-threo-hexa-4-enepyranuronosyl-(1→3)-O-2-acetamide-2-deoxy-β-D-glucopyranosyl-(1→4)-3-O-β-D-glucopyranuronosyl-(1→3)-O-2-acetamide-2-deoxy-β-D-glucopyranosyl-(1→4)-3-O-β-D-glucopyranuronic acid [Compound Example 8]	103.3%	140.9%	181.1%	168.7%	141.3%	168.7%	202.9%	251.2%	224.9%	199.2%	3.8 nM	–
4-deoxy-α-L-threo-hexa-4-enepyranuronosyl-(1→3)-O-2-acetamide-2-deoxy-β-D-glucopyranosyl-(1→4)-3-O-β-D-glucopyranuronosyl-(1→3)-O-2-acetamide-2-deoxy-β-D-glucopyranosyl-(1→4)-3-O-β-D-glucopyranuronosyl-(1→3)-O-2-acetamide-2-deoxy-β-D-glucopyranitol [Compound Example 6]	100.5%	143.8%	167.9%	168.8%	142.2%	159.8%	205.2%	232.2%	224.8%	205.7%	2.7 nM	–
4-deoxy-α-L-threo-hexa-4-enepyranuronosyl-(1→3)-O-2-acetamide-2-deoxy-β-D-glucopyranosyl-(1→4)-3-O-β-D-glucopyranuronosyl-(1→3)-O-2-acetamide-2-deoxy-β-D-glucopyranosyl-(1→4)-3-O-β-D-glucopyranuronosyl-(1→3)-O-2-acetamide-2-deoxy-β-D-glucopyranose [Compound Example 2]	–	–	–	–	–	–	–	–	–	–	3.2 nM	–
VEGF	–	–	–	–	–	–	–	–	–	–	–	148.5%
